In patent US7074742B2, “Pyridinyl amides and imides for use as fungicides” (E. I. du Pont de Nemours and Company, priority 2000, dated 2006):
Marks after values point to notes of the source that are not given here.

Key:
Format in all cases: in vivo
[1] = test system: Erysiphe graminis f. sp. tritici; experiment: TEST A: preventive spray on wheat seedlings, wheat powdery mildew, disease rating; details: 100 = 100% disease control, 0 = no control relative to controls, concentration not marked in table
[2] = test system: Puccinia recondita; experiment: TEST B: preventive spray on wheat seedlings, wheat leaf rust, disease rating; details: 100 = 100% disease control, 0 = no control, concentration not marked in table
[3] = test system: Pyricularia oryzae; details: preventive spray on rice seedlings; 100 = 100% disease control, 0 = no control; concentration not marked in table
[4] = test system: Phytophthora infestans; details: preventive spray on tomato seedlings; 100 = 100% disease control, 0 = no control; concentration not marked in table
[5] = test system: Plasmopara viticola; experiment: TEST E: preventive spray on grape seedlings, grape downy mildew, disease rating; details: 100 = 100% disease control, 0 = no control, concentration not marked in table
[6] = test system: Plasmopara viticola; experiment: TEST G: curative spray on inoculated grape seedlings, grape downy mildew, disease rating; details: for curative utility: curative (post-infection) use, especially for grape downy mildew, statement in words; for Test G disease control rating (grape downy mildew, curative): curative spray on inoculated grape seedlings
[7] = test system: Phytophthora infestans; details: curative spray; 100 ppm on potato seedlings
[8] = concentration not marked in table

SMILES | Test A disease control rating (wheat powdery mildew) [1] | Test B disease control rating (wheat leaf rust) [2] | Test C disease control rating (rice blast) [3] | Test D disease control rating (potato and tomato late blight) [4] | Test E disease control rating (grape downy mildew) [5] | curative utility [6] | Test G disease control rating (grape downy mildew, curative) [6, 8] | Test F disease control rating (late blight, curative) [7] | Test G disease control rating (grape downy mildew, curative) ([6]; 100 ppm)
CC(NC(=O)c1c(Cl)ccnc1Cl)c1ncc(Cl)cc1Cl (racemic) [Compound 36] | 0% | 38% | 0% | 100% | 100% | significant curative utility | 100% |  | 
CC(NC(=O)c1c(Cl)ccnc1Cl)c1ncc(Br)cc1Cl (racemic) [Compound 37] | 0% | 19% | 0% | 100% | 100% | significant curative utility | 100% |  | 
O=C(NCc1ncc(C(F)(F)F)cc1Cl)c1c(Cl)ccnc1Cl [Compound 28] |  |  | 0% | 100% | 100% | significant curative utility |  | 97# % | 37* %
